Data published in US10577363B2, “Substituted piperidine compounds” (EPIZYME, INC., priority 2014, dated 2020).

Columns and labels:
SMYD3 [1] = target: T1, SMYD3 (Homo sapiens (Human), UniProt Q9H7B4); assay: SMYD3 cell assay (Trimethyl-MEKK2 In-Cell Western in 293T/17 cells); format: cell-based
Source text: Trimethyl-MEKK2-in-Cell Western Assay
MEM/Glutamax medium, Optimem Reduced Serum medium, penicillin-streptomycin, 0.05% trypsin and 1×D-PBS were purchased from Life Technologies, Grand Island, N.Y., USA. PBS-10× was purchased from Ambion, Life Technologies, Grand Island, N.Y., USA. PBS with Tween 20 (PBST (10×)) was purchased from KPL, Gaithersburg, Md., USA. Tet System FBS-approved FBS US Source was purchased from Clontech, Mountain View, Calif., USA. Odyssey blocking buffer, 800CW goat anti-rabbit IgG (H+L) antibody, 680CW Goat anti-mouse IgG (H+L) and Licor Odyssey infrared scanner were purchased from Licor Biosciences, Lincoln, Nebr., USA. Tri-methyl-Lysine [A260]-MEKK2 antibody, MEKK2 and SMYD3 plasmids were made at Epizyme. Anti-flag monoclonal mouse antibody was purchased from Sigma, St. Louis, Mo., USA. Methanol was purchased from VWR, Franklin, Mass., USA. 10% Tween 20 was purchased from KPL, Inc., Gaithersburg, Md., USA. Fugene was purchased from Promega, Madison, Wis., USA. The Biotek ELx405 was purchased from BioTek, Winooski, Vt., USA. The multidrop combi was purchased from Thermo Scientific, Waltham, Mass., USA.
Cell Treatment, in Cell Western (ICW) for Detection of Trimethyl-Lysine-MEKK2 and MEKK2.
Plasmids were prepared for delivery to cells by first mixing 1350 μL Opti-MEM with Fugene (81 μL) in a sterile Eppendorf and incubated for five minutes at room temperature (RT). […] Entire volume of Opti-MEM/Fugene mixture was then added to a microfuge tube containing DNA plasmid, mixed and then incubated×15 minutes at RT. […] Medium was then removed, and cells were washed once with PBS in the flask. Trypsin 0.05% (3 mL) was added and cells incubated for three minutes. Room temperature MEM+10% Tet system FBS was added and cells were mixed gently, and counted using the Vi-cell. Cells were seeded at 100,000 cells/mL in 50 μL MEM/10% Tet FBS/Pen/Strep to a 384 well black/clear poly-D-lysine coated plate containing test agent diluted in DMSO. The final top concentration of test compound was 40 μM. […] Plates were incubated×30 minutes at RT in low-airflow area, followed by incubation at 37° C. under 5% CO2 for 24 hours. Medium was aspirated from all wells of assay plates prior to fixation and permeabilization with ice cold (−20° C.) methanol (90 μL/well) for ten minutes. Plates were rinsed with PBS three times on BioTek ELx405. PBS was removed with a final aspiration, and Odyssey blocking buffer (50 μL/well) was added to each well and incubated for one hour at RT. Primary antibody solution was prepared (anti-trimethyl-MEKK2 at 1:600 dilution plus mouse anti-flag antibody at 1:10,000 dilution in diluent (Odyssey Blocking buffer+0.1% Tween 20)) and 20 μL per well was dispensed using the Multidrop Combi. Assay plates were then sealed with foil, and incubated overnight at 4° C. Plates were washed five times with PBS-Tween (1×) on Biotek ELx405 and blotted on paper towel to remove excess reagent.
First, the ratio for each well was determined by:
Each plate included fourteen control wells of DMSO only treatment (Minimum Inhibition) as well as fourteen control wells for maximum inhibition (Background). The average of the ratio values for each control type was calculated and used to determine the percent inhibition for each test well in the plate. Reference compound was serially diluted two-fold in DMSO for a total of nine test concentrations, beginning at 40 μM.
Percent inhibition was calculated (below).
Non-linear regression curves were generated to calculate the IC50 and dose-response relationship using triplicate wells per concentration of compound.

SMYD3 [2] = target: T1, SMYD3; assay: SMYD3 biochemical assay (SPA, 3H-SAM methylation of MEKK2 protein substrate)
Procedure, shortened: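 Enzyme: untagged full-length human SMYD3 from E. coli; substrate GST-tagged MEKK2 from insect cells. Buffer 25 mM Tris-Cl pH 8.0, 1 mM TCEP, 0.005% BSG/Tween 20. 30 min compound–enzyme preincubation at RT; 3H-SAM/MEKK2 start; stop with cold SAM (100 uM final); SPA readout in cpm.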

[3] = average of n = 1 to n = 50, read-out: SMYD3 Cell IC50
[4] = average of n = 1 to n = 50, read-out: SMYD3 Biochem IC50
[5] = 293T/17 cells, read-out: SMYD3 Cell IC50 (μM)*
[6] = read-out: SMYD3 Biochem IC50 (μM)*
[7] = Table 2A, read-out: SMYD3 Cell IC50
[8] = Table 2A, read-out: SMYD3 Biochem IC50

T1 sequence (Q9H7B4 whole entry): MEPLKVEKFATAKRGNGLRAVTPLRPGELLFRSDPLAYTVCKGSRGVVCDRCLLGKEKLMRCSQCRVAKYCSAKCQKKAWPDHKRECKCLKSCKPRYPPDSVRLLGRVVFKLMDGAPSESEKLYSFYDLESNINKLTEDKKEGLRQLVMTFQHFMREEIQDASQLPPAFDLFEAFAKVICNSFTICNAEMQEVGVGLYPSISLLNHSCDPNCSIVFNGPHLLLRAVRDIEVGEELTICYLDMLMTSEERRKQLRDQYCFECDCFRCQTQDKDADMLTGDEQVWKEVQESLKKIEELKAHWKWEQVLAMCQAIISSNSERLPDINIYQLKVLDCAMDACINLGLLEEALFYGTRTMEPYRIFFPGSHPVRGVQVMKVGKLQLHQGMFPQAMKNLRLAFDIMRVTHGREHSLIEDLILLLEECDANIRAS

Structure (SMILES) | IC50 (SMYD3 [1]; [3]) [µM] | IC50 (SMYD3 [2]; [4]) [µM] | IC50 (SMYD3 [1]; read-out: SMYD3 Cell IC50*) [µM] | IC50 (SMYD3 [2]; read-out: SMYD3 Biochem IC50*) [µM] | also measured
C[C@H]1C[C@@H](NC(=O)c2cc(C3CC3)on2)CCN1S(=O)(=O)CCCNCC(C)(C)C [compound 635, 5-cyclopropyl-N-((2S,4S)-2-methyl-1-((3-(neopentylamino)propyl)sulfonyl)piperidin-4-yl)isoxazole-3-carboxamide] | 0.318 | 0.0325 |  |  | 
C[C@H]1C[C@@H](NC(=O)c2cc(C3CC3)on2)CCN1S(=O)(=O)[C@H]1CCCNC1 [compound 913, 5-cyclopropyl-N-((2S,4S)-2-methyl-1-(((S)-piperidin-3-yl)sulfonyl)piperidin-4-yl)isoxazole-3-carboxamide] |  |  | 0.255 | 0.0216 | 
CN(CCCS(=O)(=O)N1[C@@H]2CC[C@H]1C[C@@H](NC(=O)c1cc(C3CC3)on1)C2)CCN1CCOCC1 [compound 703, 5-cyclopropyl-N-((1R,3r,5S)-8-((3-(methyl(2-morpholinoethyl)amino)propyl)sulfonyl)-8-azabicyclo[3.2.1]octan-3-yl)isoxazole-3-carboxamide] | 0.804 | 0.217 |  |  | 
CNC1CCC(CS(=O)(=O)N2CC[C@H](NC(=O)c3cc(C4CC4)on3)C[C@@H]2C)C1 (stereo partly drawn) [compound 802, 5-cyclopropyl-N-((2S,4S)-2-methyl-1-(((3-(methylamino)cyclopentyl)methyl)sulfonyl)piperidin-4-yl)isoxazole-3-carboxamide] |  |  | 0.027 | 0.0023 | 
CN1CC2CC(C1)N2S(=O)(=O)N1[C@@H]2CC[C@H]1C[C@@H](NC(=O)c1cc(C3CC3)on1)C2 [compound 933, 5-cyclopropyl-N-((1R,3r,5S)-8-((3-methyl-3,6-diazabicyclo[3.1.1]heptan-6-yl)sulfonyl)-8-azabicyclo[3.2.1]octan-3-yl)isoxazole-3-carboxamide] |  |  | 0.0919 | 0.0424 | 
CCc1cc(C(=O)N[C@H]2C[C@H]3CC[C@@H](C2)N3S(=O)(=O)[C@H]2CC[C@@H](N)CC2)no1 [compound 815, N-((1R,3R,5S)-8-(((1s,4S)-4-aminocyclohexyl)sulfonyl)-8-azabicyclo[3.2.1]octan-3-yl)-5-ethylisoxazole-3-carboxamide] |  |  | 0.0526 | 0.00278 | 
CC(=O)Nc1ccc(S(=O)(=O)N2CC[C@H](NC(=O)c3cc(C4CC4)on3)C[C@H]2C)cc1 [compound 397, N-((2R,4S)-1-((4-acetamidophenyl)sulfonyl)-2-methylpiperidin-4-yl)-5-cyclopropylisoxazole-3-carboxamide] |  |  |  |  | IC50 (SMYD3 [1]; [5]): > 10 µM; IC50 (SMYD3 [2]; [6]): > 10 µM
C[C@H]1C[C@@H](NC(=O)c2cc(C3CC3)on2)CCN1S(=O)(=O)N1CCC(NCCN2CCOCC2)CC1 [compound 908, 5-cyclopropyl-N-((2S,4S)-2-methyl-1-((4-((2-morpholinoethyl)amino)piperidin-1-yl)sulfonyl)piperidin-4-yl)isoxazole-3-carboxamide] |  |  | 0.253 | 0.0184 | 
O=C1Cc2cc(S(=O)(=O)N3[C@@H]4CC[C@H]3C[C@@H](NC(=O)c3cc(C5CC5)on3)C4)c(Cl)cc2N1 [compound 432, N-((1R,3r,5S)-8-((6-chloro-2-oxoindolin-5-yl)sulfonyl)-8-azabicyclo[3.2.1]octan-3-yl)-5-cyclopropylisoxazole-3-carboxamide] |  |  |  |  | IC50 (SMYD3 [1]; [5]): > 10 µM; IC50 (SMYD3 [2]; [6]): 6.3 µM
CN(C)C1CCN(S(=O)(=O)N2[C@@H]3CC[C@H]2C[C@@H](NC(=O)c2cc(C4CC4)on2)C3)CC1 [compound 805, 5-cyclopropyl-N-((1R,3r,5S)-8-((4-(dimethylamino)piperidin-1-yl)sulfonyl)-8-azabicyclo[3.2.1]octan-3-yl)isoxazole-3-carboxamide] |  |  | 0.0532 | 0.00239 | 
O=C(N[C@H]1C[C@H]2CC[C@@H](C1)N2S(=O)(=O)CCNCCN1CCOCC1)c1cc(C2CC2)on1 [compound 743, 5-cyclopropyl-N-((1R,3r,5S)-8-((2-((2-morpholinoethyl)amino)ethyl)sulfonyl)-8-azabicyclo[3.2.1]octan-3-yl)isoxazole-3-carboxamide] | 1.82 | 0.514 |  |  | 
C[C@H]1C[C@@H](NC(=O)c2cc(C3CC3)on2)CCN1S(=O)(=O)N1CCC(N(C)CCN2CCOCC2)CC1 [compound 935, 5-cyclopropyl-N-((2S,4S)-2-methyl-1-((4-(methyl(2-morpholinoethyl)amino)piperidin-1-yl)sulfonyl)piperidin-4-yl)isoxazole-3-carboxamide] |  |  | 0.414 | 0.043 | 
C[C@H]1C[C@@H](NC(=O)c2cc(C3CC3)on2)CCN1C(=O)CC1(CN)CCCCC1 [compound 391, N-((2S,4S)-1-(2-(1-(aminomethyl)cyclohexyl)acetyl)-2-methylpiperidin-4-yl)-5-cyclopropylisoxazole-3-carboxamide] |  |  |  |  | IC50 (SMYD3 [1]; [5]): > 10 µM; IC50 (SMYD3 [2]; [6]): 5.72 µM
O=C(N[C@H]1CCN(S(=O)(=O)CC2CCNCC2)[C@@H](Cc2ccccc2)C1)c1cc(C2CC2)on1 [compound 647, N-((2S,4S)-2-benzyl-1-((piperidin-4-ylmethyl)sulfonyl)piperidin-4-yl)-5-cyclopropylisoxazole-3-carboxamide] | 0.809 | 0.0455 |  |  | 
COCCNC1CCN(S(=O)(=O)N2[C@@H]3CC[C@H]2C[C@@H](NC(=O)c2cc(C4CC4)on2)C3)CC1 [compound 870, 5-cyclopropyl-N-((1R,3r,5S)-8-((4-((2-methoxyethyl)amino)piperidin-1-yl)sulfonyl)-8-azabicyclo[3.2.1]octan-3-yl)isoxazole-3-carboxamide] |  |  | 0.13 | 0.00934 | 
CN(CCc1ccccc1)CCS(=O)(=O)N1[C@@H]2CC[C@H]1C[C@@H](NC(=O)c1cc(C3CC3)on1)C2 [compound 748, 5-cyclopropyl-N-((1R,3r,5S)-8-((2-(methyl(phenethyl)amino)ethyl)sulfonyl)-8-azabicyclo[3.2.1]octan-3-yl)isoxazole-3-carboxamide] | 3.18 | 0.584 |  |  | 
CC(C)NCCCS(=O)(=O)N1CC[C@H](NC(=O)c2cc(C3CC3)on2)C[C@@H]1C [compound 633, 5-cyclopropyl-N-((2S,4S)-1-((3-(isopropylamino)propyl)sulfonyl)-2-methylpiperidin-4-yl)isoxazole-3-carboxamide] | 0.291 | 0.0304 |  |  | 
O=C(N[C@H]1C[C@H]2CC[C@@H](C1)N2S(=O)(=O)CC1CCN(CCC(F)(F)F)CC1)c1cc(C2CC2)on1 [compound 551, 5-cyclopropyl-N-((1R,3r,5S)-8-(((1-(3,3,3-trifluoropropyl)piperidin-4-yl)methyl)sulfonyl)-8-azabicyclo[3.2.1]octan-3-yl)isoxazole-3-carboxamide] |  |  |  |  | IC50 (SMYD3 [1]; [7]): 0.0542 µM; IC50 (SMYD3 [2]; [8]): 0.0029 µM
CC(C)CN1CCC(CS(=O)(=O)N2CC[C@@H](NC(=O)c3cc(C4CC4)on3)C[C@H]2C)CC1 [compound 611, 5-cyclopropyl-N-((2R,4R)-1-(((1-isobutylpiperidin-4-yl)methyl)sulfonyl)-2-methylpiperidin-4-yl)isoxazole-3-carboxamide] |  |  |  |  | IC50 (SMYD3 [1]; [7]): 1.03 µM; IC50 (SMYD3 [2]; [8]): 0.02 µM
CC(C)CNc1ccc(S(=O)(=O)N2C3CCCC2CC(NC(=O)c2cc(C4CC4)on2)C3)cn1 (stereo not shown) [compound 465, 5-cyclopropyl-N-(9-((6-(isobutylamino)pyridin-3-yl)sulfonyl)-9-azabicyclo[3.3.1]nonan-3-yl)isoxazole-3-carboxamide] |  |  |  |  | IC50 (SMYD3 [1]; [5]): 6.16 µM; IC50 (SMYD3 [2]; [6]): 3.12 µM
